Experimental data reported in patent publication US20150075790A1, “OILFIELD BIOCIDE” (SCHLUMBERGER TECHNOLOGY CORPORATION, priority 2013, published 2015).

Columns and labels:
Assay type in all cases: physicochemical
[1] = Breaking schedule of crosslinked guar gel with oxidizer (breaker), viscosity at 66° C.; settings: shear rate 100 sec^-1, 66° C. (150° F.)
Procedure: Two samples were evaluated to determine the impact of the MGO on the breaking schedule of a guar solution. The viscosity of each sample was measured at a shear rate of 100 sec^−1 while aging at 66° C. (150° F.) in the presence of an oxidizer (a breaker) to determine the effect 2-oxo-aldehyde such as MGO has on gel stability. The data is shown graphically in FIG. 4.

[2] = Vortex closure time of boron-crosslinked guar solution, initially and after aging
Procedure: The effects of the biocide on cross linking were evaluated. It is known that chemical contamination may have a detrimental impact on the cross linking of guar and other polymers. The impact of 2-oxo-aldehyde such as MGO on guar crosslinking was evaluated using the vortex closure time of a solution of guar. Vortex closure time is determined by charging a portion of the gel in a blender and measuring the time required for the vortex produced upon initiation of mixing the solution in the blender to close. […] In other words, a non-crosslinked or minimally crosslinked mixture with have an infinite vortex closure time. The higher the level of crosslinking, the shorter the vortex closure time once mixing is initiated.
A comparative sample E and a sample F were prepared by mixing 0.5 g of guar in 99.5 g water and mixing in the blender. Sample F further included 0.4 g MGO solution (0.16 g of MGO). No vortex closure occurred while mixing the uncrosslinked samples. Next, an amount of a Boron based crosslinking agent was added to each of the mixing samples and the initial vortex closure time was measured as shown in Table 4. The vortex closure time was then measured after 4 days of aging at room temperature (25° C.) in a non-sterile environment, and then again after 6 days of aging at 25° C. […] The data also confirm that biological degradation has a pronounced effect on cross-linking.

[3] = tested on: biological degradation of the concentrated guar fluids; assay: Viscosity of highly concentrated guar fluids (water in water emulsion) after aging and dilution; settings: ~200 ppt guar
Procedure: The efficacy of 2-oxo-aldehyde such as MGO as a biocide was investigated on highly concentrated guar fluids (˜200 ppt) produced as a water in water emulsion. Comparative sample G and sample H were prepared without and with MGO respectively. After dilution of the concentrated fluids (1 part of sample to 4 parts of water) their rheological properties were measured after 0, 1, 2, 3, and 4 days. The data are shown graphically in FIG. 5. […] After three days of aging at 25° C., comparative sample G (without MGO) presents a much lower viscosity than its initial value at day 0, i.e. the fluid in comparative sample G has been degraded.

[4] = tested on: bacteria or other biological agents known to degrade such fluids; assay: Viscosity of guar fluid after aging at 25° C. in a non-sterile environment (biocidal activity on a guar system); settings: relatively dilute concentrations; period of at least 6 days
From the text: For purposes herein, aging of a fluid (e.g., a solution or mixture) in a non-sterile environment for purposes of determining the inhibition of biological degradation of the fluid may include the steps of preparing and characterizing a fluid in a non-sterile environment followed by allowing the fluid to age in the non-sterile environment (or non-sterile container) which is, or which has been in fluid communication with an external environment such that the fluid has been exposed to the ambient environment which inherently contains bacteria or other biological agents known to degrade such fluids at room temperature (i.e., 25° C.), followed by characterizing the aged fluid in essentially the same way under the same conditions using the same method utilized to characterize the fluid initially. […] The biocidal activity of a 2-oxo-aldehyde having 3 or more carbon atoms such as methylglyoxal on a guar system was evaluated. […] Samples were maintained at room temperature and their viscosities were measured directly after their preparation (in a non-sterile environment) and then again determined after the different periods of time aging at 25° C. in a non-sterile environment as indicated. The viscosity of sample B was determined initially and then again after 1, 2, 3, and 6 days of aging at 25° C. in a non-sterile environment, i.e., in a covered beaker on a lab bench. […]

## CC(=O)C=O [MGO, methylglyoxal]
[1]
  Impact on the breaking schedule of a guar gel (FIG. 4): does not have a significant impact on the breaking schedule
[2]; 160 mg/L (0.4 gpt), even after several days
  Impact on the vortex closure time: does not have any impact on the vortex closure time
[2]; boron based crosslinking agent, guar
  Interference with crosslinking of the polymer: does not prevent or interfere with the crosslinking
[3]
  Prevention of biological degradation of concentrated guar fluids: has prevented biological degradation
[4]
  Effectiveness in reducing biological degradation of the guar fluid: effective in reducing biological degradation
